These results are taken from patent publication US20050152847A1, “Novel formulation” (priority 2002, published 2005).

The conditions of series [1]: iso-osmotic with serum/saline; cited from earlier work.
A short description of series [2]: Concentration of aqueous solution iso-osmotic with serum/saline. It counts as physicochemical. The following applies: expected from number of molecules, not measured. The source says:
We preferably select an excipient with a concentration of at least >5.5%, preferably >7%—compounds that could be regarded as weak osmolytic or non-osmolytic active compounds—teaching away from WO 00/36915. The selected concentration values are based upon the clinical results presented for lactose and mannitol. The physiological condition is pH 7.4 and 276 mOsm.
The osmotic pressure is proportional to the concentration of the solute for nonelectrolytes. The osmotic pressures of solutions of different nonelectrolytes are proportional to the number of molecules in each solution. This means—when having the same amount in grams—a disaccharide will have about half the osmotic pressure as a monosaccharide, which could also be seen in table 1. This type of generalisations could not be used for electrolytes. All disaccharides (e.g. trehalose) would be expected to have an osmotic pressure corresponding to a solution of at least >7% and trisaccharides (e.g. melezitose, raffinose) needed higher concentration in order to be iso-osmotic with a saline solution. The carbohydrate myo-inositol would be expected to have a concentration of less than 5% for iso-osmolytic activity with saline.

For series [3] the following is noted: cited from earlier work.
The conditions of series [4]: cited from earlier work. This is another data set of the same source.
The conditions of series [5]: generally regarded; cited from earlier work.
Series [6] deals with stable asthma patients. The following applies: fifteen stable asthma patients; lactose dry powder alone; no dosage data given; cited from earlier work.

Where a name gives a salt, the structure may show the parent alone. Where only a bound is given, the exact number is not on record here.

For `[Cl-].[Na+]` [Sodium chloride], the “Concentration of aqueous solution iso-osmotic with serum (%)” value (“Concentration … (%)” for short) in series [1] is listed as 0.9%.
On to `O[C@H]1[C@H](O)[C@@H](O)[C@H](O)[C@@H](O)[C@H]1O` [myo-inositol], for which the “Expected concentration of solution iso-osmotic with saline” value in series [2] is recorded as “less than 5%”.
On to `OC[C@@H](O)[C@@H](O[C@H]1O[C@H](CO)[C@@H](O)[C@H](O)[C@H]1O)[C@H](O)[C@@H](O)CO` [Maltitol], for which the “Concentration … (%)” value in series [1] is given as 10%. Also, the “Stability of water solution” value in series [3] (pH 4-9 even at higher temperatures) is reported as “very stable”. The “Stability of water solution (time stable)” value in series [3] (room temperature and pH 2-9) was “at least 2 years”. Besides, in series [4] (20° C.), the “Relative humidity at which moisture is absorbed” value is at least 89%. For the same molecule, the “Toxicity, allergenicity, irritancy” value in series [5] is “nontoxic, nonallergenic and nonirritant”.
As for `O=C1O[C@H]([C@@H](O)CO)C([O-])=C1O.[Na+]` [Sodium ascorbate], in series [1], the “Concentration … (%)” value is 3.0%.
Take `OC[C@@H](O)[C@@H](O)[C@H](O)[C@@H](O)CO` [Sorbitol]: the “Concentration … (%)” value in series [1] was 5.5%.
Regarding `O=C[C@H](O)[C@@H](O)[C@@H](O)[C@H](O)CO` [Galactose], the “Concentration … (%)” value in series [1] is 4.9%.
Take `OC[C@@H](O)[C@@H](O)[C@H](O)[C@H](O)CO` [Mannitol]: the “Concentration … (%)” value in series [1] is listed as 5.1%.
For `CCN(CC)CC(=O)Nc1c(C)cccc1C` [Lidocaine-HCl, reference compound], the “Concentration … (%)” value in series [1] is given as 4.4%.
As for `OC[C@@H](O)[C@H](O)[C@@H](O)CO` [Xylitol], the “Concentration … (%)” value in series [1] is listed as 4.6%.
For the molecule `OC[C@H]1O[C@@](CO)(O[C@H]2O[C@H](CO)[C@@H](O)[C@H](O)[C@H]2O)[C@@H](O)[C@@H]1O` [Sucrose], the “Concentration … (%)” value in series [1] is 9.3%. In addition, the Moisture sensitivity entry in series [4] (submitted to humidity) is given as “very moisture sensitive”.
Consider `Cc1cc(C(C)(C)C)c(O)c(C)c1CC1=NCCN1.Cl` [Oxymethazoline-HCl, reference compound], for which the “Concentration … (%)” value in series [1] was 4.9%.
Consider `OC[C@H]1O[C@@H](O[C@H]2[C@H](O)[C@@H](O)C(O)O[C@@H]2CO)[C@H](O)[C@@H](O)[C@H]1O` (stereo partly drawn) [Lactose], for which the “Concentration … (%)” value in series [1] is 9.8%. In addition, the “Bronchoconstriction after inhalation of dry powder” value in series [6] was “caused bronchoconstriction”.
Turning to `O=C(CO)[C@@H](O)[C@H](O)[C@H](O)CO` [Fructose], the “Concentration … (%)” value in series [1] is reported as 5.1%.
In the case of `O=C1O[C@H]([C@@H](O)CO)C(O)=C1O` [Ascorbic acid], the “Concentration … (%)” value in series [1] is reported as 5.9%.
With `OC[C@@H](O)[C@@H](O[C@@H]1O[C@H](CO)[C@H](O)[C@H](O)[C@H]1O)[C@H](O)[C@@H](O)CO` [Lactitol], in series [1], the “Concentration … (%)” value is 7%.
